Test results from patent US5886178A, “3-aroylbenzylpyridazinone derivatives” (Syntex (U.S.A.) Inc., priority 1997, dated 1999).

Legend:
[1] = test system: prostaglandin E2 synthesis; assay: Inhibition of eicosanoid (PGE2) synthesis in vivo, carrageenan air-pouch model in rats; design: species or system rat; details: 10 mg/Kg, oral, male rats
Method: In this assay, an air-pouch is created in the rat and the PGE2 levels in the air-pouch exudate are measured by enzyme immunoassay. Briefly, male rats were anesthetized using a 60:40 CO2 :O2 mixture and subsequently injected subcutaneously with 20 ml of sterilized air, under aseptic conditions, in the proximal area of the dorsum. This injection of sterile air causes the creation of a subcutaneous "air pouch". The next day, a further 10 ml of sterile air was injected into the previously formed pouch using the same technique. […] Control rats received vehicle alone. After 30 minutes, 5 ml of a 0.5% solution of carrageenan (Sigma, Lambda Type IV) was injected into the air pouch. The rats were euthanized 3 hr after the compound administration. […] The total exudate volume was recorded, and the samples were analyzed for PGE2 and 6-keto PGF1 by ELISA (Titerzyme®, PerSeptive Diagnostics) and TxB2 by radioimmuno assay (New England Nuclear Research, Catalog No. NEK-037), according to the manufacturer's directions.
The mean concentrations of PGE2 were calculated for each group. The anti-inflammatory activity of test materials is expressed as the percent inhibition of PGE2 formation in the test group relative to the control group.

[2] = Acetic Acid-induced Rat Writhing Assay (analgesic activity); format: in vivo; details: 10 mg/Kg, oral, male Sprague Dawley rats
Excerpt: The analgesic activity of compounds of this invention may be determined by the Acetic Acid-induced Rat Writhing Assay, using a modification of the method described in Berkenkopf, J. W. and Weichman, B. M. "Production of Prostacyclin in Mice following Intraperitoneal Injection of Acetic Acid, Phenylbenzoquinone and Zymosan: Its Role in the Writhing Response". Prostaglandins: 36: 693-70 (1988). This assay is one of several acute assays which have been used to assess the analgesic activity of NSAIDs, and is considered predictive of human efficacy. The test materials were administered orally to male Sprague Dawley rats in a volume of 1 ml/100 g body weight as solutions or suspensions in an aqueous vehicle containing 0.9% NaCl, 0.5% sodium carboxymethyl-cellulose, 0.4% polysorbate 80, 0.9% benzyl alcohol and 97.3% water. Control rats received vehicle alone. One hour after compound administration, 0.3 ml/100 g body weight of 0.75% solution of acetic acid was injected intraperitoneally. The acetic acid injection induces a series of characteristic writhing responses, which were counted over the period between 15 and 30 minutes after the injection. The analgesic activity of test materials is expressed as the percentage inhibition of writhing in the test group relative to the control group.

COX I = COX I (Homo sapiens, UniProt P23219); assay: Inhibition of COX I in vitro, partially purified enzyme, radiometric assay; format: biochemical; design: made in house; details: 20 micromolar arachidonic acid
Sequence of COX I (P23219 24-599): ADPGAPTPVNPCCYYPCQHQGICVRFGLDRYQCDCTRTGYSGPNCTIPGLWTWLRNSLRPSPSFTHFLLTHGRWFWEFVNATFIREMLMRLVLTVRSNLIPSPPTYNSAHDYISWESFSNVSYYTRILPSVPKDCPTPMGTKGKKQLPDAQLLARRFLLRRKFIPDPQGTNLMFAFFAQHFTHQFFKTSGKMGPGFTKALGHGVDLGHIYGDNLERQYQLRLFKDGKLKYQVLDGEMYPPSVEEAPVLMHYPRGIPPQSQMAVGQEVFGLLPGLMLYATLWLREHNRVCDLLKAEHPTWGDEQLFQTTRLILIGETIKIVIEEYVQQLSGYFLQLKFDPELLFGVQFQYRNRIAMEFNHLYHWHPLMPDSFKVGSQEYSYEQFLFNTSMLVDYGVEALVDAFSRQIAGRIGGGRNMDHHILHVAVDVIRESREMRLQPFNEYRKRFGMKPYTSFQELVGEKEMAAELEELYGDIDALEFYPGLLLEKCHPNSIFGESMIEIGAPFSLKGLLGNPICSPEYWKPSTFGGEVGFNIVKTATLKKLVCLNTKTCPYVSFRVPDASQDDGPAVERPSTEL
Method: The COX I and COX II inhibitory activity of compounds of this invention in vitro was determined using partially purified COX I and COX II enzymes, prepared as described in J. Barnett et al, Biochim. Biophys.
COX I and COX II samples were diluted with Tris-HCl buffer (50 mM Tris-HCl, pH 7.9) containing 2 mM EDTA and 10% glycerol and reconstituted by incubating first with 2 mM phenol for 5 minutes and then with 1 micromolar hematin for an additional 5 minutes. 125 μl of the reconstituted COX I or COX II enzyme were preincubated for 10 minutes at room temperature in a shaking water bath with the compounds of the invention dissolved in 2-15 μl of DMSO or the carrier vehicles (control samples). The enzyme reaction was initiated by adding 25 μl of 1-[14C]arachidonic acid (80,000-100,000 cpm/tube; 20 micromolar final concentration) and the reaction was allowed to continue for an additional 45 seconds. The reaction was terminated by adding 100 μl of 2N HCl and 750 μl water. An aliquot (950 μl) of the reaction mixture was loaded onto a 1 ml C18 Sep-Pak column (J. T. Baker, Phillipsburg, N.J.) which had been previously washed with 2-3 ml methanol and equilibrated with 5-6 ml distilled water. Oxygenated products were quantitatively eluted with 3 ml of acetonitrile/water/acetic acid (50:50:0.1, v/v) and the radioactivity in the eluate determined in a scintillation counter.

COX II = target: T1, COX II (Homo sapiens, UniProt P35354); assay: Inhibition of COX II in a cell based assay (human foreskin fibroblasts, PGE2 ELISA); design: host or cells: primary human foreskin fibroblasts (HFF), induced with PMA and human interleukin-1; details: human foreskin fibroblasts (HFF)
T1 sequence (P35354 18-604): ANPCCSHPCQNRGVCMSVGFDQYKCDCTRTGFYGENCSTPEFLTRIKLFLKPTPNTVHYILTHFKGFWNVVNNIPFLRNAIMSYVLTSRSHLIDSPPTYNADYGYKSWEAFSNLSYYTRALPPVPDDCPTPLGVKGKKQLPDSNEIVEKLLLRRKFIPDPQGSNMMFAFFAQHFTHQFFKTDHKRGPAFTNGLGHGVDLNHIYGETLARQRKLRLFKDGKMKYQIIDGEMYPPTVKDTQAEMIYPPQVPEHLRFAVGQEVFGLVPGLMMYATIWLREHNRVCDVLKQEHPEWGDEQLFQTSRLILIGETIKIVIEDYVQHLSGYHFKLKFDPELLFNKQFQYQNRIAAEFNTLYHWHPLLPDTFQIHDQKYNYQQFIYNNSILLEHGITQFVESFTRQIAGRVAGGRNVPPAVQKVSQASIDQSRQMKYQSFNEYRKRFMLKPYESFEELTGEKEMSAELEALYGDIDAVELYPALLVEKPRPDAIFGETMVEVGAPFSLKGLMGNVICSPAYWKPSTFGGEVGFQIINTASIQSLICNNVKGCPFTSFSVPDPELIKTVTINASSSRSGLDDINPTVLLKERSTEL
Method: The COX I and COX II inhibitory activity of compounds of this invention in a cell based assay was determined as described below.
The inhibitory activity of test compounds against cell associated COX-2 was measured using primary cultures of human foreskin fibroblasts (HFF). HFF cultures were obtained from ATCC, grown in DMEM medium (Gibco) and used between 13-30 passages. Cells were plated in 96-well microtiter plates at a density of 6-8×10^4 cells/well in DMEM containing 10% fetal calf serum (Sigma) and cultured at 37° C. until they became confluent. The medium was removed and the cells were washed once with PBS. COX-2 activity was induced by incubating the cells with fresh DMEM containing 0.1 μM phorbol 12-myristate 13-acetate (PMA, Sigma) and 1ng/ml of human interleukin-1 (Sigma) at 37° C. After 16 h the medium was removed and the cells were washed twice with phosphate buffered saline (PBS, Gibco). 200 μl/well of fresh medium containing desired concentrations of the test compounds in DMSO, or the carrier vehicle (control wells) was added and the cells incubated at 37° C. for 30 minutes; after which 5 μM calcium ionophore A23187 (Sigma) was added and the incubation was continued for an additional 10 minutes. The reaction was terminated by transferring the plates to ice. The culture supernatants were transferred and appropriately diluted, and the amount of prostaglandin E2 (PGE2) present in each supernatant was quantitated using an ELISA kit (Cayman Chemicals).
The COX I and COX II inhibitory activities in the cell based assay (expressed as IC50) of some compounds of the invention were: […]

IC50 (COX I): 391 µM
IC50 (COX II): 2000 nM
Structure (SMILES): COc1ccc(C(=O)c2cccc(Cc3ccc(=O)[nH]n3)c2C)cc1 [Cpd 11, 6-[3-(4-methoxybenzoyl)-2-methylbenzyl]-2H-pyridazin-3-one]
% inhibition of air pouch PGE2 formation [1]: 80%
% inhibition of writhing responses [2]: 10%
